Values of other authors in patent US20060127506A1, “Compositions of S-adenosyl-L-methionine” (priority 2004, published 2006).
One block for each compound: values may come before it.

Experiments:
[1] = tested on: S-adenosyl-L-methionine-dependent methyltransferases
[2] = tested on: nucleolar 2-O-methyltransferase; conditions: (S,S) vs (R,S) diastereomer
[3] = optical purity of 97-100% (Berna et al, US 20020010147)
[4] = oral; alcoholic liver cirrhosis; compared with placebo treated group
beta-adrenergic = conditions: L-form vs D-enantiomer

extent of binding relative to (S,S)-S-adenosyl-L-methionine (Other methyltransferases): to the same extent | inhibition of enzyme-catalyzed transmethylation reactions [1]: potent inhibitor
Compound: C[S@@+](CC[C@@H](N)C(=O)O)C[C@H]1O[C@@H](n2cnc3c(N)ncnc32)[C@H](O)[C@@H]1O [(R,S)-S-adenosyl-L-methionine]

tightness of enzyme binding relative to (R,S)-S-adenosyl-L-methionine [2]: 10 fold | time for which optical purity is sustained before epimerization begins again [3]: ≤ 4 months
Compound: C[S@@+](CC[C@H](N)C(=O)O)C[C@H]1O[C@@H](n2cnc3c(N)ncnc32)[C@H](O)[C@@H]1O [(S,S)-S-adenosyl-L-methionine]

Compound: C[S+](CC[C@H](N)C(=O)[O-])C[C@H]1O[C@@H](n2cnc3c(N)ncnc32)[C@H](O)[C@@H]1O (stereo partly drawn) [S-adenosyl-L-methionine]
overall mortality and/or progression to liver transplant [4]: 12%

Compound: CC(C)NCC(O)COc1cccc2ccccc12 (stereo not drawn) [propranolol]
potency of L-form relative to D-enantiomer (beta-adrenergic): 100 times
